From US12648904B2, “Porous nanocomposite medical implant device” (Lynthera Corporation, priority 2020, dated 2026)

Experiment: Fatty acid loading into contact lenses, by weighing the dry lens before and after soaking
Assay type: physicochemical
Conditions: for Fatty acid loading / Fatty acid by weight of the dried lens: ACUVUE TruEye lens; for Fatty acid loading: soaking concentration 20 mg/mL fatty acid in ethanol; for Fatty acid by weight of the dried lens: 7.5 mg/mL fatty acid in ethanol, 24 hours at 23° C.
Method: Two commercial silicone hydrogel contact lenses were tested: ACUVUE TruEye® (46% Water+54% Narafilcon A) and ACUVUE Oasys® (38% Water+62% Senofilcon A). TruEye® is a daily disposable contact lens while Oasys® is an approved contact lens for extended wear. The lenses were rinsed with deionized water and then air-dried before being soaked in 4 mL of 19 mg/mL, 27 mg/mL or 40 mg/mL of oleic acid in ethanol. The soaking duration was 24 hours at room temperature. Following the loading step, the contact lenses were taken out and excess fatty acid-ethanol solution was blotted out from the lens surface. Lenses were washed in deionized water for 1 hour and subsequently air-dried overnight.
The loading amount of OA was determined by weighing the dry lens before and after the fatty acid loading period as shown in FIG. 4. Oleic acid loading has a linear dependency on the concentration of the loading solutions. Furthermore, Oasys® has higher affinity for oleic acid than TruEye® at concentrations between […] and 27 mg/mL. For higher concentrations, the affinity for oleic acid is equivalent for both contact lenses. Therefore, the loading of Oleic acid into lens can be adjusted by this correlation.
1-day ACUVUE Moist® (58% Water+42% Etafi Icon A) are conventional hydrogel commercial lenses that are mostly composed of poly-2-hydroxyethyl methacrylate (pHEMA). Lenses were rinsed with PBS and then air-dried before use. Dry lenses were soaked in 4 mL of 100 mg/mL of oleic acid in a mixture of ethanol and deionized water (75/25 ethanol/water). […] Following the loading step, the contact lenses were taken out and excess fatty acid-ethanol solution was blotted out from the lens surface. Lenses were washed in PBS for 1 hour and then were air-dried overnight. The loading amount of OA was determined by weighing the dry lens before and after the fatty acid loading period.
ACUVUE TruEye® (diopter −3.5) contact lenses were rinsed with deionized. water and then air-dried overnight before use. One batch of contact lenses were soaked in 4 mL of 7.5 mg,/mL of myristic acid in ethanol. Another batch of contact lens were soaked in 4 mL of 7.5 mg/mL of stearic acid in ethanol. A third batch of lenses was used as a control (no fatty acid loading). The soaking duration was 24 hours at 23° C. Following the loading step, the contact lenses were taken out and excess fatty acid-ethanol solution was blotted out from the lens surface. Lenses were washed in deionized water for 1 hour and subsequently air-dried overnight. All contact lenses were optically transparent in the hydrated state. The wt % of fatty add retain by the contact lens was determined by recording the increase in the weight of the dried lens after the soaking and drying procedure. For both stearic and myristic acid, approximately 1.5% ±0.5% by weight of the dried lens was composed of the fatty acid.

SMILES	Maximum oleic acid loading (1-day ACUVUE Moist lens, 100 to 500 mg/mL oleic acid in 75/25 ethanol/water) [wt. %]	Fatty acid loading [wt %]	Fatty acid by weight of the dried lens
CCCCCCCCCCCCCCCCCC(=O)O [stearic acid, Stearic Acid (Octadecanoic Acid)]			approximately 1.5%
CC/C=C\C/C=C\C/C=C\CCCCCCCC(=O)O [α-linolenic acid]		6.0	
CCCCCCCCCCCCCC(=O)O [myristic acid, Myristic Acid (Tetradecanoic Acid)]			approximately 1.5%

More lines, now with the values ahead:

Maximum oleic acid loading (1-day ACUVUE Moist lens, 100 to 500 mg/mL oleic acid in 75/25 ethanol/water) [wt. %]	Fatty acid loading [wt %]	Fatty acid by weight of the dried lens	SMILES
2.9	6.1		CCCCCCCC/C=C\CCCCCCCC(=O)O [oleic acid]
	6.2		CCCCC/C=C\C/C=C\CCCCCCCC(=O)O [linoleic acid]
